According to publication PMC6332093, “Development of Radiolabeled Membrane Type-1 Matrix Metalloproteinase Activatable Cell Penetrating Peptide Imaging Probes” (Molecules, 2015):

Target: MT1-MMP (Homo sapiens, UniProt P50281)
Assay: MT1-MMP sensitivity of ACPP probes (LC-MS)
Format: biochemical
Conditions: peptide 0.1 mM, MT1-MMP 0.13 µM (method section: 15 nM), 60 min, 37 °C, 50 mM Tris, 200 mM NaCl, 10 mM CaCl2, 10 µM ZnCl2, pH 7.5, LC-MS; cleavage between Asn and Leu
Method: The peptides ACPP-A, ACPP-B, and ACPP-C (without SHPP functionality) were screened for MT1-MMP sensitivity by incubating the peptides (0.1 mM) with MT1-MMP (0.13 µM) for 60 min. For ACPP-A, a small fraction (<5%) of the peptide was cleaved between the asparagine and leucine residue (Figure 3A). […] ACPP-A analogs (a peptide probe lacking the 5-amino-3-oxapentanoic acid linker residues and its linear analog) were also synthesized and tested for MT1-MMP sensitivity, showing also a low degree of activation (Figure S2). Accordingly, a recent study found a poor response of a genetically encoded MT1-MMP biosensor employing the same substrate. […] Therefore, further in-depth analysis of the MT1-MMP specificity and in vivo characteristics of ACPP-A was not performed.
Figure 3 LC-MS characterization of ACPP-A, ACPP-B, and ACPP-C (0.1 mM) incubated with MT1-MMP (0.13 µM) for 60 min. The left and right graphs show the UV absorbance chromatogram and the mass spectra of the UV-peaks bracketed by the arrowheads, respectively. […]
ACPP-A, ACPP-B, and ACPP-C (0.1 mM) were incubated with 15 nM MT1-MMP in a mixture of 50 mM Tris, 200 mM NaCl, 10 mM CaCl2 and 10 µM ZnCl2 at pH 7.5 at 700 rpm and 37 °C. After 1 h, the enzyme was quenched by the addition of TFA (10% v/v), and the reaction mixture was analyzed by LC-MS.

Q: For `CC(=O)N[C@H](Cc1ccc(O)cc1)C(=O)N[C@H](CCC(=O)O)C(=O)N[C@H](CCC(=O)O)C(=O)N[C@H](CCC(=O)O)C(=O)N[C@H](CCC(=O)O)C(=O)N[C@H](CCC(=O)O)C(=O)N[C@H](CCC(=O)O)C(=O)N[C@H](CCC(=O)O)C(=O)N[C@H](CCC(=O)O)C(=O)N[C@H](CCC(=O)O)C(=O)NCCOCC(=O)N[C@H]1CSSC[C@@H](C(=O)N[C@@H](CC(N)=O)C(=O)N[C@@H](CC(C)C)C(=O)N[C@@H](Cc2ccccc2)C(=O)N[C@H](C(=O)N[C@@H](CC(C)C)C(=O)N[C@@H](CCCCN)C(=O)N[C@@H](CC(=O)O)C(=O)NCCOCC(=O)N[C@H](CCCNC(=N)N)C(=O)N[C@H](CCCNC(=N)N)C(=O)N[C@H](CCCNC(=N)N)C(=O)N[C@H](CCCNC(=N)N)C(=O)N[C@H](CCCNC(=N)N)C(=O)N[C@H](CCCNC(=N)N)C(=O)N[C@H](CCCNC(=N)N)C(=O)N[C@H](CCCNC(=N)N)C(=O)N[C@H](CCCNC(=N)N)C(=O)N[C@H](CCNC(=O)CN2CCN(CC(=O)O)CCN(CC(=O)O)CCN(CC(=O)O)CC2)C(N)=O)C(C)C)NC(=O)[C@H](CO)NC(=O)[C@H](CCC(=O)O)NC(=O)[C@H](CCCCN)NC(=O)[C@@H]2CCCN2C1=O` [ACPP-A, Ac-y-e9-X-C*PKESC*NLFVLKD-X-r9-dab(DOTA)-NH2], which “fraction of the peptide cleaved by MT1-MMP” value is on record?
A: The value was under 5%.
